Results published in patent US8466279B2, “Polymorphs of efavirenz” (Hetero Drugs Limited, priority 2004, dated 2013).

Assays:
[1] = dissolution properties compared with the known forms; format: physicochemical
[2] = stability of the crystalline form; format: physicochemical

SMILES	dissolution properties [1]	stability over the time [2]	stability relative to reported forms ([2]; versus Form I, Form II, Form III, Form 1, Form 2, Form 3, Form 4 and Form 5)
O=C1Nc2ccc(Cl)cc2[C@@](C#CC2CC2)(C(F)(F)F)O1 [amorphous efavirenz, (4S)-6-chloro-4-(cyclopropylethynyl)-1,4-dihydro-4-(trifluoromethyl)-2H-3,1-benzoxazin-2-one]	better dissolution properties		
O=C1Nc2ccc(Cl)cc2[C@@](C#CC2CC2)(C(F)(F)F)O1 [efavirenz form H1, (4S)-6-chloro-4-(cyclopropylethynyl)-1,4-dihydro-4-(trifluoromethyl)-2H-3,1-benzoxazin-2-one]		stable over the time	at least as stable as the reported forms
